Laboratory results reported in patent US20230092890A1, “1, 3, 4-Oxadiazole derivative compounds as histone deacetylase 6 inhibitor, and the pharmaceutical composition comprising the same” (Chong Kun Dang Pharmaceutical Corp., priority 2019, published 2023).

How the values were obtained:
HDAC1 = molecular target: T1, HDAC1 (Homo sapiens, UniProt Q13547); assay: HDAC enzyme activity inhibition (in vitro), HDAC1 Fluorimetric Drug Discovery Assay Kit; assay type: biochemical; conditions: samples at 100, 1000 and 10000 nM; 37° C. 60 minutes; fluorescence Ex 390, Em 460; read-out: HDAC1 IC50
T1 construct: purchased Enzolifesciences BML-AK511
Method in brief: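 HDAC1 was tested at 100, 1000 and 10000 nM and recombinant human HDAC6 at 0.1, 1, 10, 100 and 1000 nM. Enzyme reactions ran 60 min at 37° C, then developer was added for 30 min at 37° C, and fluorescence (Ex 390, Em 460) was read.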

HDAC6 human recombinant = molecular target: T2, HDAC6 human recombinant (Homo sapiens, UniProt Q9UBN7); assay: HDAC enzyme activity inhibition (in vitro), HDAC6 assay; assay type: biochemical; conditions: samples at 0.1, 1, 10, 100 and 1000 nM; 37° C. 60 minutes; fluorescence Ex 390, Em 460; read-out: HDAC6 IC50
T2 construct: purchased Calbiochem 382180
T2 sequence (Q9UBN7 1-1215): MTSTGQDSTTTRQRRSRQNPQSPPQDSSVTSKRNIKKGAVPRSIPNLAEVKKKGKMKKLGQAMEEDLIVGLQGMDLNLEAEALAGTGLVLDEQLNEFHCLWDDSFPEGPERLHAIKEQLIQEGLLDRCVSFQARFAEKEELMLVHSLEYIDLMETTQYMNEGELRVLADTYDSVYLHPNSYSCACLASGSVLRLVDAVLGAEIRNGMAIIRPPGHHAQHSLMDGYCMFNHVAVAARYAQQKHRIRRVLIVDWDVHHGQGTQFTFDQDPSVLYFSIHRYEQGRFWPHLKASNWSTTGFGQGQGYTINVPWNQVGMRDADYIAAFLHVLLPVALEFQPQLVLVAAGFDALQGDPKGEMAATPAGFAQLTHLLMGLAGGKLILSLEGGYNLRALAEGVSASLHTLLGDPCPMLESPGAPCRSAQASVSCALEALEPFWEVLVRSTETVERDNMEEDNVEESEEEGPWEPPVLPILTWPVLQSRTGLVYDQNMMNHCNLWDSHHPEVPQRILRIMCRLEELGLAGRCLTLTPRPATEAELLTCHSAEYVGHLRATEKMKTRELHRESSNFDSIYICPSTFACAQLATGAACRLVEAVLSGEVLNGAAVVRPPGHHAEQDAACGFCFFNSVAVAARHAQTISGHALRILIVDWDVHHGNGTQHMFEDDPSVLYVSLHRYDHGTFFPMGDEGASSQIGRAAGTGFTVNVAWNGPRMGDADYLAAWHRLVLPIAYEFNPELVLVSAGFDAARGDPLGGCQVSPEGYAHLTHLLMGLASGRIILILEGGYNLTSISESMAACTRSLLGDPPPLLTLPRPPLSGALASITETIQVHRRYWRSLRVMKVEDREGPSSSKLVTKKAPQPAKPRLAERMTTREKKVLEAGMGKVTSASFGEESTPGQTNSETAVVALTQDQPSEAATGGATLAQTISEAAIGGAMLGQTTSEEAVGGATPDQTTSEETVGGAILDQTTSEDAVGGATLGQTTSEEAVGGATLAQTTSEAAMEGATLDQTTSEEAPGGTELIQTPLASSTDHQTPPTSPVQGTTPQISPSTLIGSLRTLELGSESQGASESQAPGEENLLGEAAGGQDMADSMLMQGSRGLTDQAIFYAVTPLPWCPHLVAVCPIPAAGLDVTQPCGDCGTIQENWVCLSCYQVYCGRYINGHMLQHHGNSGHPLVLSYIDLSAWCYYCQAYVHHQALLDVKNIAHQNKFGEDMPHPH
Method in brief: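 HDAC6 human recombinant enzyme with fluorimetric substrate; […]. Reaction 60 min at 37° C, then developer 30 min at 37° C; fluorescence read at Ex 390/Em 460.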

T1 sequence (Q13547 whole entry): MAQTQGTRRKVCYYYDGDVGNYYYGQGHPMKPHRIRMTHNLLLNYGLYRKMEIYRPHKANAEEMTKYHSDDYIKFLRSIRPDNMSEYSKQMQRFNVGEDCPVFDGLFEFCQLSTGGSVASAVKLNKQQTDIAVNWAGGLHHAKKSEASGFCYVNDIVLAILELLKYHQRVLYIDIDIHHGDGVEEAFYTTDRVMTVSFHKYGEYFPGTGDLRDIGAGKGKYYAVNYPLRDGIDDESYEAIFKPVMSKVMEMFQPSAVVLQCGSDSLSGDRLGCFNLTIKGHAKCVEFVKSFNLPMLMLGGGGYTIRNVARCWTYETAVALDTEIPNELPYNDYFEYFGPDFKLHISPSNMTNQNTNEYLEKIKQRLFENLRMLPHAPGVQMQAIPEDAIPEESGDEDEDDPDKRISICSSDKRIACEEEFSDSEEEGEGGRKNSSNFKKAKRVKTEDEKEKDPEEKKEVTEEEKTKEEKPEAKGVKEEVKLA

Structure (SMILES) | IC50 (HDAC1) | IC50 (HDAC6 human recombinant)
CN1CCC(n2c(=O)n(Cc3ccc(-c4nnc(C(F)F)o4)cn3)c3cc(F)c(Br)cc32)CC1 [Compound 149, 5-bromo-1-((5-(5-(difluoromethyl)-1,3,4-oxadiazole-2-yl)pyridine-2-yl)methyl)-6-fluoro-3-(1-methylpiperidine-4-yl)-1,3-dihydro-2H-benzo[d]imidazole-2-one] | > 10000 nM | 40 nM
CN1CCC[C@@H](n2c(=O)n(Cc3ccc(-c4nnc(C(F)F)o4)cn3)c3cc(F)c(-c4cccc5[nH]ccc45)cc32)C1 [Compound 276, (R)-1-((5-(5-(difluoromethyl)-1,3,4-oxadiazole-2-yl)pyridine-2-yl)methyl)-6-fluoro-5-(1H-indole-4-yl)-3-(1-methylpiperidine-3-yl)-1,3-dihydro-2H-benzo[d]imidazole-2-one] | > 10000 nM | 15 nM
O=c1n(Cc2ccc(-c3nnc(C(F)F)o3)cc2F)c2ccccc2n1CC1CCN(C2COC2)CC1 [Compound 39, 1-(4-(5-(difluoromethyl)-1,3,4-oxadiazole-2-yl)-2-fluorobenzyl)-3-((1-(oxetan-3-yl)piperidine-4-yl)methyl)-1,3-dihydro-2H-benzo[d]imidazole-2-one] | > 10000 nM | 167 nM
Cn1c(=O)n(Cc2ccc(-c3nnc(C(F)F)o3)cn2)c2cc(F)c(N3CCN(Cc4cccnc4)CC3)cc21 [Compound 303, 1-((5-(5-(difluoromethyl)-1,3,4-oxadiazole-2-yl)pyridine-2-yl)methyl)-6-fluoro-3-methy 1-5-(4-(pyridine-3-ylmethyl)piperazine-1-yl)-1,3-dihydro-2H-benzo[d]imidazole-2-one] | > 10000 nM | 29 nM
O=c1n(Cc2ccc(-c3nnc(C(F)F)o3)cn2)c2cc(Cl)ccc2n1C1CCN(CC(F)(F)C(F)F)CC1 [Compound 235, 5-chloro-3-((5-(5-(difluoromethyl)-1,3,4-oxadiazole-2-yl)pyridine-2-yl)methyl)-1-(1-(2,2,3,3-tetrafluoropropyl)piperidine-4-yl)-1,3-dihydro-2H-benzo[d]imidazole-2-one] | > 10000 nM | 103 nM
O=c1n(Cc2ccc(-c3nnc(C(F)F)o3)cn2)c2cc(F)c(-c3cccc4[nH]ccc34)cc2n1[C@@H]1CCCN(C2COC2)C1 [Compound 295, (R)-1-((5-(5-(difluoromethyl)-1,3,4-oxadiazole-2-yl)pyridine-2-yl)methyl)-6-fluoro-5-(1H-indole-4-yl)-3-(1-(oxetan-3-yl)piperidine-3-yl)-1,3-dihydro-2H-benzo[d]imidazole-2-one] | > 10000 nM | 10 nM
Cn1c(=O)n(Cc2ccc(-c3nnc(C(F)F)o3)cn2)c2cc(F)c(-c3cnc(N4CCN(C(=O)OC(C)(C)C)CC4)nc3)cc21 [Compound 341, tert-butyl 4-(5-(1-((5-(5-(difluoromethyl)-1,3,4-oxadiazole-2-yl)pyridine-2-yl)methyl)-6-fluoro-3-methyl-2-oxo-2,3-dihydro-1H-benzo[d]imidazole-5-yl)pyrimidine-2-yl)piperazine-1-carboxylate] | > 10000 nM | 208 nM
CN1CCC(n2c(=O)n(Cc3ccc(-c4nnc(C(F)F)o4)cc3F)c3cc(Cl)c(Cl)cc32)CC1 [Compound 87, 5,6-dichloro-1-(4-(5-(difluoromethyl)-1,3,4-oxadiazole-2-yl)-2-fluorobenzyl)-3-(1-methylpiperidine-4-yl)-1,3-dihydro-2H-benzo[d]imidazole-2-one] | > 10000 nM | 63 nM
O=c1n(Cc2ccc(-c3nnc(C(F)F)o3)cn2)c2cc(F)ccc2n1C1CCN(C2CC3(COC3)C2)CC1 [Compound 49, 1-(1-(2-oxaspiro[3.3]heptane-6-yl)piperidine-4-yl)-3-((5-(5-(difluoromethyl)-1,3,4-oxadiazole-2-yl)pyridine-2-yl)methyl)-5-fluoro-1,3-dihydro-2H-benzo[d]imidazole-2-one] | > 10000 nM | 35 nM
Cn1c(=O)n(Cc2ccc(-c3nnc(C(F)F)o3)cn2)c2cc(F)c(N3CCN(Cc4cn[nH]c4)CC3)cc21 [Compound 285, 5-(4-((1H-pyrazole-4-yl)methyl)piperazine-1-yl)-1-((5-(5-(difluoromethyl)-1,3,4-oxadiazole-2-yl)pyridine-2-yl)methyl)-6-fluoro-3-methyl-1,3-dihydro-2H-benzo[d]imidazole-2-one] | > 10000 nM | 33 nM
O=c1n(CCN2CC3(COC3)C2)c2ccccc2n1Cc1ccc(-c2nnc(C(F)F)o2)cc1F [Compound 24] | > 10000 nM | 137 nM
CC(=O)N1CCC(n2c(=O)n(Cc3ccc(-c4nnc(C(F)F)o4)cc3)c3ccc(Cl)cc32)CC1 [Compound 183, 3-(1-acetylpiperidine-4-yl)-5-chloro-1-(4-(5-(difluoromethyl)-1,3,4-oxadiazole-2-yl)benzyl)-1,3-dihydro-2H-benzo[d]imidazole-2-one] | > 10000 nM | 73 nM

Further lines, results first:

IC50 (HDAC1) | IC50 (HDAC6 human recombinant) | Structure (SMILES)
> 10000 nM | 8 nM | O=c1n(Cc2ccc(-c3nnc(C(F)F)o3)cn2)c2cc(F)c(-c3cccnc3)cc2n1[C@@H]1CCCN(C2COC2)C1 [Compound 293, (R)-1-((5-(5-(difluoromethyl)-1,3,4-oxadiazole-2-yl)pyridine-2-yl)methyl)-6-fluoro-3-(1-(oxetan-3-yl)piperidine-3-yl)-5-(pyridine-3-yl)-1,3-dihydro-2H-benzo[d]imidazole-2-one]
> 10000 nM | 29 nM | O=c1n(Cc2ccc(-c3nnc(C(F)F)o3)cn2)c2cc(F)ccc2n1CC1CCN(C2COC2)CC1 [Compound 301, 3-((5-(5-(difluoromethyl)-1,3,4-oxadiazole-2-yl)pyridine-2-yl)methyl)-5-fluoro-1-((1-(oxetan-3-yl)piperidine-4-yl)methyl)-1,3-dihydro-2H-benzo[d]imidazole-2-one]
> 10000 nM | 19 nM | O=c1n(Cc2ccc(-c3nnc(C(F)F)o3)cc2F)c2cc(F)ccc2n1C1CCN(C2COC2)CC1 [Compound 71, 3-(4-(5-(difluoromethyl)-1,3,4-oxadiazole-2-yl)-2-fluorobenzyl)-5-fluoro-1-(1-(oxetan-3-yl)piperidine-4-yl)-1,3-dihydro-2H-benzo[d]imidazole-2-one]
> 10000 nM | 35 nM | O=c1n(Cc2ccc(-c3nnc(C(F)F)o3)cn2)c2c(F)cccc2n1C1CCN(C2COC2)CC1 [Compound 77, 3-((5-(5-(difluoromethyl)-1,3,4-oxadiazole-2-yl)pyridine-2-yl)methyl)-4-fluoro-1-(1-(oxetan-3-yl)piperidine-4-yl)-1,3-dihydro-2H-benzo[d]imidazole-2-one]
> 10000 nM | 31 nM | O=c1oc2cc(-c3cnn(C4CCN(C5COC5)CC4)c3)c(F)cc2n1Cc1ccc(-c2nnc(C(F)F)o2)cn1 [Compound 362, 3-((5-(5-(difluoromethyl)-1,3,4-oxadiazole-2-yl)pyridine-2-yl)methyl)-5-fluoro-6-(1-(1-(oxetan-3-yl)piperidine-4-yl)-1H-pyrazole-4-yl)benzo[d]oxazole-2(3H)-one]
> 10000 nM | 45 nM | O=c1n(Cc2ccc(-c3nnc(C(F)F)o3)cc2F)c2cc(F)c(F)cc2n1C1CCN(C2COC2)CC1 [Compound 94, 1-(4-(5-(difluoromethyl)-1,3,4-oxadiazole-2-yl)-2-fluorobenzyl)-5,6-difluoro-3-(1-(oxetan-3-yl)piperidine-4-yl)-1,3-dihydro-2H-benzo[d]imidazole-2-one]
